Measurements reported in ChEMBL document CHEMBL3885881, “DrugMatrix”.

Organism: Rattus norvegicus
Experiment: DrugMatrix - Regimen: Daily Repeat
Type: toxicity, organism-based, Sprague-Dawley
Parameters: regimen Daily Repeat, gender Male, age 6-8 weeks
Conditions: in vivo, po, 0 mg/kg, route oral GAVAGE, dose level Control, vehicle .5 % CMC; for ABSOLUTE BASOPHIL / ABSOLUTE EOSINOPHIL / ABSOLUTE LYMPHOCYTE / ABSOLUTE MONOCYTE / ABSOLUTE SEGMENTED NEUTROPHIL / BASOPHIL / EOSINOPHIL / ERYTHROCYTE COUNT / HEMATOCRIT / HEMOGLOBIN / LEUKOCYTE COUNT / LYMPHOCYTE / MEAN CORPUSCULAR HEMOGLOBIN / MEAN CORPUSCULAR HEMOGLOBIN CONCENTRATION / MEAN CORPUSCULAR VOLUME / MONOCYTE / NEUTROPHIL / PLATELET COUNT: tissue Blood; for ALANINE AMINOTRANSFERASE / ALBUMIN / ALKALINE PHOSPHATASE / ASPARTATE AMINOTRANSFERASE / BLOOD UREA NITROGEN / CHLORIDE / CHOLESTEROL / CREATINE PHOSPHOKINASE / CREATININE / GLUCOSE / LACTATE DEHYDROGENASE / LIPASE / PHOSPHORUS / POTASSIUM / SODIUM / TOTAL BILIRUBIN / TOTAL PROTEIN / URIC ACID: tissue Plasma

With `O=c1cc(-c2ccccc2)oc2c1ccc1ccccc12` [ALPHA-NAPHTHOFLAVONE] the ABSOLUTE BASOPHIL (120 h, time 5 day) was 92 cells/µL, the ABSOLUTE EOSINOPHIL (120 h, time 5 day) was 52 cells/µL and the ABSOLUTE LYMPHOCYTE (120 h, time 5 day) was 6560 cells/µL. It also gave an ABSOLUTE MONOCYTE (120 h, time 5 day) of 160 cells/µL, an ABSOLUTE SEGMENTED NEUTROPHIL (120 h, time 5 day) of 1130 cells/µL and a BASOPHIL (120 h, time 5 day) of 1.14%. For the same compound, the EOSINOPHIL (120 h, time 5 day) was 0.68%, the “ERYTHROCYTE COUNT” value (120 h, time 5 day) was 7.51 x10E6/uL and the HEMATOCRIT (120 h, time 5 day) was 46.04%. The HEMOGLOBIN (120 h, time 5 day) was 15.62 G/DL, the “LEUKOCYTE COUNT” value (120 h, time 5 day) was 8.03 x10E3/uL and the LYMPHOCYTE (120 h, time 5 day) was 81.54%. For the same compound, the “MEAN CORPUSCULAR HEMOGLOBIN” value (120 h, time 5 day) was 20.84 pg, the “MEAN CORPUSCULAR HEMOGLOBIN CONCENTRATION” value (120 h, time 5 day) was 33.94 G/DL and the “MEAN CORPUSCULAR VOLUME” value (120 h, time 5 day) was 61.42 fL. For the same compound, the MONOCYTE (120 h, time 5 day) was 2%, the NEUTROPHIL (120 h, time 5 day) was 14.24% and the “PLATELET COUNT” value (120 h, time 5 day) was 1427.2 x10E3/uL. The “ALANINE AMINOTRANSFERASE” value (120 h, time 5 day) was 35.6 u/L, the ALBUMIN (120 h, time 5 day) was 3.64 G/DL and the “ALKALINE PHOSPHATASE” value (120 h, time 5 day) was 233 u/L. For the same compound, the “ASPARTATE AMINOTRANSFERASE” value (120 h, time 5 day) was 81 u/L, the “BLOOD UREA NITROGEN” value (120 h, time 5 day) was 12 mg/dL and the CHLORIDE (120 h, time 5 day) was 109.4 MEQ/L. The CHOLESTEROL (120 h, time 5 day) was 47.6 mg/dL, the “CREATINE PHOSPHOKINASE” value (120 h, time 5 day) was 183.2 u/L and the CREATININE (120 h, time 5 day) was 0.4 mg/dL. For the same compound, the GLUCOSE (120 h, time 5 day) was 134.6 mg/dL, the “LACTATE DEHYDROGENASE” value (120 h, time 5 day) was 89.4 u/L and the LIPASE (120 h, time 5 day) was 17.2 u/L. For the same compound, the PHOSPHORUS (120 h, time 5 day) was 13.02 mg/dL, the POTASSIUM (120 h, time 5 day) was 7 MEQ/L and the SODIUM (120 h, time 5 day) was 149.6 MEQ/L. For the same compound, the “TOTAL BILIRUBIN” value (120 h, time 5 day) was 0.18 mg/dL, the “TOTAL PROTEIN” value (120 h, time 5 day) was 6.06 G/DL and the “URIC ACID” value (120 h, time 5 day) was 1.04 mg/dL. It also gave an ABSOLUTE BASOPHIL (2184 h, time 91 day) of 130 cells/µL, an ABSOLUTE EOSINOPHIL (2184 h, time 91 day) of 70 cells/µL and an ABSOLUTE LYMPHOCYTE (2184 h, time 91 day) of 8670 cells/µL. For the same compound, the ABSOLUTE MONOCYTE (2184 h, time 91 day) was 160 cells/µL, the ABSOLUTE SEGMENTED NEUTROPHIL (2184 h, time 91 day) was 1530 cells/µL and the BASOPHIL (2184 h, time 91 day) was 1.13%. For the same compound, the EOSINOPHIL (2184 h, time 91 day) was 0.66%, the “ERYTHROCYTE COUNT” value (2184 h, time 91 day) was 9.13 x10E6/uL and the HEMATOCRIT (2184 h, time 91 day) was 48.47%. The HEMOGLOBIN (2184 h, time 91 day) was 16.56 G/DL, the “LEUKOCYTE COUNT” value (2184 h, time 91 day) was 10.5 x10E3/uL and the LYMPHOCYTE (2184 h, time 91 day) was 81.63%. For the same compound, the “MEAN CORPUSCULAR HEMOGLOBIN” value (2184 h, time 91 day) was 18.16 pg, the “MEAN CORPUSCULAR HEMOGLOBIN CONCENTRATION” value (2184 h, time 91 day) was 34.14 G/DL and the “MEAN CORPUSCULAR VOLUME” value (2184 h, time 91 day) was 53.14 fL. The MONOCYTE (2184 h, time 91 day) was 1.53%, the NEUTROPHIL (2184 h, time 91 day) was 14.71% and the “PLATELET COUNT” value (2184 h, time 91 day) was 1280.22 x10E3/uL. The “ALANINE AMINOTRANSFERASE” value (2184 h, time 91 day) was 28.89 u/L, the ALBUMIN (2184 h, time 91 day) was 3.69 G/DL and the “ALKALINE PHOSPHATASE” value (2184 h, time 91 day) was 101.11 u/L. The “ASPARTATE AMINOTRANSFERASE” value (2184 h, time 91 day) was 70.67 u/L, the “BLOOD UREA NITROGEN” value (2184 h, time 91 day) was 16.78 mg/dL and the CHLORIDE (2184 h, time 91 day) was 104.56 MEQ/L. The CHOLESTEROL (2184 h, time 91 day) was 58.78 mg/dL, the “CREATINE PHOSPHOKINASE” value (2184 h, time 91 day) was 91.22 u/L and the CREATININE (2184 h, time 91 day) was 0.61 mg/dL. The GLUCOSE (2184 h, time 91 day) was 142.33 mg/dL, the “LACTATE DEHYDROGENASE” value (2184 h, time 91 day) was 81.67 u/L and the LIPASE (2184 h, time 91 day) was 13 u/L. For the same compound, the PHOSPHORUS (2184 h, time 91 day) was 7.54 mg/dL, the POTASSIUM (2184 h, time 91 day) was 6.27 MEQ/L and the SODIUM (2184 h, time 91 day) was 149.89 MEQ/L. For the same compound, the “TOTAL BILIRUBIN” value (2184 h, time 91 day) was 0.19 mg/dL, the “TOTAL PROTEIN” value (2184 h, time 91 day) was 7.12 G/DL and the “URIC ACID” value (2184 h, time 91 day) was 0.97 mg/dL. For the same compound, the ABSOLUTE BASOPHIL ([…], time 28 day) was 150 cells/µL, the ABSOLUTE EOSINOPHIL ([…], time 28 day) was 54 cells/µL and the ABSOLUTE LYMPHOCYTE ([…], time 28 day) was 8890 cells/µL. For the same compound, the ABSOLUTE MONOCYTE ([…], time 28 day) was 190 cells/µL, the ABSOLUTE SEGMENTED NEUTROPHIL ([…], time 28 day) was 2250 cells/µL and the BASOPHIL ([…], time 28 day) was 1.26%. For the same compound, the EOSINOPHIL ([…], time 28 day) was 0.46%, the “ERYTHROCYTE COUNT” value ([…], time 28 day) was 8.34 x10E6/uL and the HEMATOCRIT ([…], time 28 day) was 48.66%. The HEMOGLOBIN ([…], time 28 day) was 16.04 G/DL, the “LEUKOCYTE COUNT” value ([…], time 28 day) was 11.58 x10E3/uL and the LYMPHOCYTE ([…], time 28 day) was 76.74%. The “MEAN CORPUSCULAR HEMOGLOBIN” value ([…], time 28 day) was 19.2 pg, the “MEAN CORPUSCULAR HEMOGLOBIN CONCENTRATION” value ([…], time 28 day) was 32.92 G/DL and the “MEAN CORPUSCULAR VOLUME” value ([…], time 28 day) was 58.32 fL. The MONOCYTE ([…], time 28 day) was 1.76%, the NEUTROPHIL ([…], time 28 day) was 19.44% and the “PLATELET COUNT” value ([…], time 28 day) was 1282.6 x10E3/uL. For the same compound, the “ALANINE AMINOTRANSFERASE” value ([…], time 28 day) was 27 u/L, the ALBUMIN ([…], time 28 day) was 3.68 G/DL and the “ALKALINE PHOSPHATASE” value ([…], time 28 day) was 146.2 u/L. The “ASPARTATE AMINOTRANSFERASE” value ([…], time 28 day) was 66.6 u/L, the “BLOOD UREA NITROGEN” value ([…], time 28 day) was 12.4 mg/dL and the CHLORIDE ([…], time 28 day) was 104.6 MEQ/L. The CHOLESTEROL ([…], time 28 day) was 59.6 mg/dL, the “CREATINE PHOSPHOKINASE” value ([…], time 28 day) was 121.8 u/L and the CREATININE ([…], time 28 day) was 0.6 mg/dL. For the same compound, the GLUCOSE ([…], time 28 day) was 143 mg/dL, the “LACTATE DEHYDROGENASE” value ([…], time 28 day) was 87.8 u/L and the LIPASE ([…], time 28 day) was 17.4 u/L. It also gave a PHOSPHORUS ([…], time 28 day) of 8.68 mg/dL, a POTASSIUM ([…], time 28 day) of 6.02 MEQ/L and an SODIUM ([…], time 28 day) of 152.8 MEQ/L. The “TOTAL BILIRUBIN” value ([…], time 28 day) was 0.26 mg/dL, the “TOTAL PROTEIN” value ([…], time 28 day) was 6.92 G/DL and the “URIC ACID” value ([…], time 28 day) was 0.52 mg/dL.
